Reference: patent publication US10940139B2, “Compounds that interact with the Ras superfamily for the treatment of cancers, inflammatory diseases, rasopathies, and fibrotic disease” (Shy Therapeutics LLC, priority 2017, dated 2021)

test system: MAPK phosphorylation in PANC-1 pancreatic cancer cell line; assay: MAPK cell-based phosphorylation assay (cell-direct ELISA, EGF stimulation); settings: Homo sapiens
Summary of the method: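 Cell-direct ELISA measured phospho-MAPK, with fluorescence read at 595 nm from AmpliFlu Red. Before fixation, PANC-1 cells starved overnight received 6 hours of compound (30 μM single dose or serial dilutions, 0.3% DMSO, 37° C), followed by 1.5 ng/ml EGF for 15 min.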

| IC50 | Compound |
| --- | --- |
| 11 to 30 µM | COCC(C)Nc1nc(-c2ccccn2)nc2sc(C)c(-c3ccccc3)c12 (centres unmarked) [drawing 1040] |
| > 30 µM | COc1ccnc(-c2nc(O)c3ccsc3n2)c1 [drawing 1114] |
| > 30 µM | O=C(c1csc2c(O)nc(-c3ccccn3)nc12)N1CCOC(c2cccc(F)c2)C1 (centres unmarked) [drawing 1128] |

| Compound | IC50 |
| --- | --- |
| Oc1nc(-c2ccccn2)nc2c(-c3ccccc3Cl)csc12 [drawing 1075] | < 2 µM |

same assay, conditions: Homo sapiens, * = tested at 10 μM

| Compound | inhibition at 10 µM |
| --- | --- |
| CCC(C)c1csc2c(OC)nc(-c3ccccn3)nc12 (centres unmarked) [drawing 1245] | 25 to 50% |
| O=C(c1csc2c(O)nc(-c3ccccn3)nc12)N1CCNC(c2cn[nH]c2)C1 (centres unmarked) [drawing 1200] | 25 to 50% |
| Oc1nc(-c2ccccn2)nc2c(Br)c(-c3ccccc3)sc12 [drawing 1313] | 0% |
| COC(=O)c1csc2nc(-c3ccccn3)nc(N)c12 [drawing 1232] | 25 to 50% |
| COc1nc(-c2ccccn2)nc2c(C3CCCCC3)csc12 [drawing 1251] | 1 to 25% |
| Cc1ccc(OC2CCCC2)c(-c2csc3c(O)nc(-c4ccccn4)nc23)c1 [drawing 1189] | 25 to 50% |
| Oc1nc(-c2ccccn2)nc2c(-c3ccc(OC(F)F)cc3F)csc12 [drawing 1215] | 51 to 75% |
| Oc1nc(-c2ccccn2)nc2c(-c3ccccc3C(F)F)csc12 [drawing 1221] | 76 to 100% |
| CC(C)COc1ccc(-c2c(-c3ccccc3)sc3c(O)nc(-c4nccn4C)nc23)cn1 [drawing 1347] | 51 to 75% |
| Oc1nc(-c2ccccn2)nc2c(C3CCCC3)csc12 [drawing 1256] | 76 to 100% |
| Cc1sc2c(O)nc(-c3ccccn3)nc2c1C(=O)N1CCN(c2ccccc2)CC1 [drawing 1269] | 1 to 25% |
| CC(C)Oc1cnc(-c2ccccn2)nc1O [drawing 1252] | 1 to 25% |
| COc1cnc(-c2nccn2C)nc1O [drawing 1273] | 25 to 50% |
| CC(C)OCCNc1nc(-c2nccn2C)nc2sc(-c3ccccc3)c(-c3ccccc3)c12 [drawing 1327] | 76 to 100% |
| Cc1sc2c(O)nc(-c3ccccn3)nc2c1C(=O)N1CCN(c2ccccc2)CC1C (centres unmarked) [drawing 1270] | 1 to 25% |
| COc1ccc(COC[C@H]2O[C@@H](c3csc4c(=O)[nH]c(-c5ccccn5)nc34)[C@H](O)[C@@H]2O)cc1 [drawing 1293] | 0% |
| Cn1ccnc1-c1nc(O)c2scc(-c3ccccc3)c2n1 [drawing 1374] | 76 to 100% |
| CCOCCNc1nc(-c2nccn2C)nc2sc(-c3ccccc3)c(-c3ccccc3)c12 [drawing 1335] | 76 to 100% |

| Compound | inhibition at 10 µM |
| --- | --- |
| Oc1nc(-c2ccccn2)nc2cc(-c3ccncc3)sc12 [drawing 1321] | 0% |
| Oc1nc(-c2ccccn2)nc2c(-c3ccccc3)c(-c3ccncc3)sc12 [drawing 1308] | 0% |
| OCC1(c2ccc(-c3nc(-c4ccccn4)nc(-c4ccc(C5(CO)CC5)cc4)c3Oc3ccccc3)cc2)CC1 [drawing 1292] | 51 to 75% |
| COc1cnc(-c2cnc[nH]2)nc1O [drawing 1276] | 1 to 25% |
| Cc1sc2c(O)nc(-c3ccccn3)nc2c1Br [drawing 1282] | 76 to 100% |
| Oc1nc(-c2ccccn2)nc2c(-c3cc(F)ccc3OC(F)F)csc12 [drawing 1202] | 1 to 25% |
| COC(C)(C)c1ccc(-c2csc3c(O)nc(-c4nccn4C)nc23)cc1 [drawing 1378] | 25 to 50% |
| Cc1c(C(=O)O)sc2c(O)nc(-c3ccccn3)nc12 [drawing 1249] | 25 to 50% |
| COc1ccc(-c2c(C)sc3c(O)nc(-c4nccn4C)nc23)cn1 [drawing 1361] | 25 to 50% |
| CC(CO)Nc1nc(-c2nccn2C)nc2sc(-c3ccccc3)c(-c3ccccc3)c12 (centres unmarked) [drawing 1338] | 25 to 50% |
| Cc1sc2c(O)nc(-c3ccccn3)nc2c1-c1ccncc1 [drawing 1258] | 51 to 75% |
| COc1nc(-c2ccccn2)nc(Oc2cccc(C(F)(F)F)c2)c1OC [drawing 1312] | 0% |
| Nc1nc(O)c2sc(-c3cccc(C(=O)NCc4ncc[nH]4)c3)cc2n1 [drawing 1305] | 0% |
| COCCNc1nc(-c2nccn2C)nc2sc(-c3ccccc3)c(-c3ccc(OC)cc3)c12 [drawing 1349] | 76 to 100% |
| COc1nc(-c2ccccn2)nc(Oc2cccc(C(F)(F)F)c2)c1O [drawing 1325] | 1 to 25% |
| CC(C)Cc1csc2c(O)nc(-c3ccccn3)nc12 [drawing 1255] | 76 to 100% |
| Cn1ccnc1-c1nc(O)c2c(-c3ccccc3)c(-c3ccccc3)sc2n1 [drawing 1296] | 0% |
| N#Cc1cccc(-c2csc3c(O)nc(-c4ccccn4)nc23)c1 [drawing 1264] | 0% |

same assay, conditions: Homo sapiens, at 30 μM

| Compound | inhibition at 30 µM |
| --- | --- |
| Nc1nc(O)c2scc(-c3ccccc3Cl)c2n1 [drawing 1073] | 1 to 25% |
| O=C(Nc1nnc(-c2ccccn2)[nH]1)C1CCCC1 [drawing 1008] | 1 to 25% |
| CC(C)(C(=O)Nc1nc(-c2ccccn2)nc2sccc12)c1ccc(C#N)cc1 [drawing 1136] | 1 to 25% |
| O=C(c1csc2c(O)nc(-c3ccccn3)nc12)N1CCN(Cc2ccc(O)c(Cl)c2)CC1 [drawing 1147] | 25 to 50% |
| COCCCC1CCN(C(=O)c2csc3c(O)nc(-c4ccccn4)nc23)CC1 [drawing 1066] | 1 to 25% |
| O=S(=O)(CCc1ccccc1)N1CCCc2c(O)nc(-c3ccccn3)nc21 [drawing 1060] | 25 to 50% |
| N#Cc1cccc(N2CCN(C(=O)c3csc4c(O)nc(-c5ccccn5)nc34)CC2)c1 [drawing 1139] | 1 to 25% |
| CC(C)c1nc(CC(=O)Nc2nnc(-c3ccccn3)[nH]2)cs1 [drawing 1003] | 1 to 25% |
| CC(C)C1=C(O)C2(CC2c2ccc(-c3ccccc3)cc2)C(C)CC1 (centres unmarked) [drawing 1056] | 1 to 25% |
| O=C(Cc1c[nH]c2ccccc12)Nc1nnc(-c2ccccn2)[nH]1 [drawing 996] | 51 to 75% |
| CC(C(=O)Nc1ccnc(-c2ccccn2)n1)c1ccc(C#N)cc1 (centres unmarked) [drawing 1158] | 1 to 25% |
| c1ccc(-c2csc3nc(-c4ccccn4)nc(N4CCN(CCN5CCCC5)CC4)c23)cc1 [drawing 1101] | 76 to 100% |
| O=C(c1csc2c(O)nc(-c3ccccn3)nc12)N1CCNC(c2ccccc2F)C1 (centres unmarked) [drawing 1153] | 1 to 25% |
| CN(CCCc1n[nH]c(N)c1C#N)c1nc(-c2ccccn2)nc2sc(-c3ccccc3)cc12 [drawing 1090] | 25 to 50% |
| Cc1ccccc1C1CN(C(=O)c2csc3c(O)nc(-c4ccccn4)nc23)CCN1 (centres unmarked) [drawing 1152] | 1 to 25% |
| O=C(CNc1nc(-c2ccccn2)nc2scc(-c3ccccc3)c12)NC1CC1 [drawing 1097] | 25 to 50% |
| O=C(Nc1nnc(-c2ccccn2)[nH]1)C1Cc2cc(Cl)ccc2O1 (centres unmarked) [drawing 1025] | 1 to 25% |
| Nc1nc(O)c2scc(C(=O)N3CCc4ccccc4CC3)c2n1 [drawing 1063] | 1 to 25% |
| Cc1sc2nc(-c3ccccn3)nc(NCCCO)c2c1-c1ccccc1 [drawing 1043] | 1 to 25% |
| COc1ccc(CN(CC[S+]([O-])c2cc(Cl)ccc2Cl)C2CC2)cc1 (centres unmarked) [drawing 1050] | 25 to 50% |
| COc1cccc(C2CN(C(=O)c3csc4c(O)nc(-c5ccccn5)nc34)CCO2)c1 (centres unmarked) [drawing 1126] | 1 to 25% |
| CCOC(=O)c1ccnc(N2CCC(C)CC2c2ccc(CC)o2)c1[N+](=O)[O-] (centres unmarked) | 25 to 50% |
| CC(C)(C(=O)Nc1ccnc(-c2ccccn2)n1)c1ccc(C#N)cc1 [drawing 1135] | 25 to 50% |

| Compound | inhibition at 30 µM |
| --- | --- |
| O=C(Nc1nnc(-c2ccccn2)[nH]1)c1ncoc1-c1cccs1 [drawing 1009] | 25 to 50% |
| O=C(c1csc2c(O)nc(-c3ccccn3)nc12)N1CCOC(c2ccc(F)cc2)C1 (centres unmarked) [drawing 1134] | 1 to 25% |
| NC(=O)Cn1cnc2nc(-c3ccccn3)nc(N3CCOCC3)c21 [drawing 1184] | 1 to 25% |
| COCC(C)Nc1nc(-c2ccccn2)nc2sc(C)c(-c3ccccc3)c12 (centres unmarked) [drawing 1040] | 76 to 100% |
| Cc1cccc(CN(Cc2ccccn2)Cc2nccn2C)c1 [drawing 1045] | 25 to 50% |
| O=S1(=O)CCC(Nc2nc(-c3ccccn3)nc3scc(-c4ccccc4)c23)C1 (centres unmarked) [drawing 1100] | 1 to 25% |
| Oc1nc(-c2ccccn2)nc2c(-c3ccccc3Cl)csc12 [drawing 1075] | 76 to 100% |
| c1ccc(-c2csc3nc(-c4ccccn4)nc(N4CCN(CC5CCCO5)CC4)c23)cc1 (centres unmarked) [drawing 1088] | 1 to 25% |
| COc1ccc(CCC(=O)Nc2nnc(-c3ccccn3)[nH]2)cc1F [drawing 994] | 51 to 75% |
| COc1ccc2c(ccn2CC(=O)Nc2nnc(-c3ccccn3)[nH]2)c1 [drawing 1000] | 1 to 25% |
| O=C(c1csc2c(O)nc(-c3ccccn3)nc12)N1CCN(c2ccc(O)c(Cl)c2)CC1 [drawing 1165] | 1 to 25% |
| COc1ccc2c(c1)CCC2C(=O)Nc1nc(-c2ccccn2)nc2sccc12 (centres unmarked) [drawing 1177] | 1 to 25% |
| COC(=O)c1csc2c(O)nc(-c3ccccn3)nc12 [drawing 1182] | 25 to 50% |
| COc1ccnc(-c2nc(O)c3ccsc3n2)c1 [drawing 1114] | 51 to 75% |
| O=C(c1csc2c(O)nc(-c3ccccn3)nc12)N1CCN(Cc2ccccc2)CC1 [drawing 1144] | 1 to 25% |
| COc1cc(OC)cc(N2CCN(C(=O)c3csc4c(O)nc(-c5ccccn5)nc34)CC2)c1 [drawing 1140] | 1 to 25% |
| O=C(Cn1cnc2ccccc2c1=O)Nc1nc(-c2ccccn2)cs1 [drawing 1030] | 1 to 25% |
| CC(Oc1ccccc1C#N)C(=O)Nc1nnc(-c2ccccn2)[nH]1 (centres unmarked) [drawing 1013] | 51 to 75% |
| CC(C)C(=O)Nc1nc(CC(=O)Nc2nnc(-c3ccccn3)[nH]2)cs1 [drawing 1022] | 1 to 25% |
| COc1cccc(CN2CCN(C(=O)c3csc4c(O)nc(-c5ccccn5)nc34)CC2)c1 [drawing 1145] | 25 to 50% |
| O=C(c1csc2c(O)nc(-c3ccccn3)nc12)N1CCOC(c2cccc(F)c2)C1 (centres unmarked) [drawing 1128] | 1 to 25% |
| O=C(Nc1nnc(-c2ccccn2)[nH]1)c1ccn(-c2cccc(F)c2)n1 [drawing 999] | 1 to 25% |
| Cc1nc2nc(C(F)(F)F)nn2c(C)c1CC(=O)Nc1nnc(-c2ccccn2)[nH]1 [drawing 1020] | 1 to 25% |
